This is an account of results in US20240076620A1, “PRODUCTION OF SKELETAL MUSCLE CELLS AND SKELETAL MUSCLE TISSUE FROM PLURIPOTENT STEM CELLS” (Georg-August-Universität Göttingen Stiftung Öffentlichen …, priority 2019, published 2024).

Holding throughout (type): cell-based, human
Assay [1] relates to engineered skeletal muscle tissue (ESM). Briefly: Isometric force measurements of engineered skeletal muscle (ESM) matured with medium additives. To be noted: for contraction speed (+dFOC/dt): 100 Hz stimulation; for contraction speed (+dFOC/dt) / relaxation speed (−dFOC/dt): vs without added T3; for relaxation speed (−dFOC/dt): after 100 Hz stimulation; for increase of the force of contraction: 100 Hz, vs no creatine. The text has this:
To further increase the function of engineered skeletal muscle, e.g. the contraction force can be increased by adding specific molecules. In this example, we specifically tested the enhancement of the contraction force, as well as contraction and relaxation times, in response to the addition of creatine and an increased concentration of thyroid hormone T3 (triiodo-L-thyronine (T3); from 3 to 100 nmol/L in the maturation medium in step iv). Here, the procedure according to Examples 1 and 2 was performed first. In contrast to Example 2, the maturation medium was supplemented with creatine or an increased concentration of T3 either between days 28 and 56 or between days 56 and 84 of the method.
The maturation medium was changed every other day and cultured under mechanical stretching for up to 9 weeks. The maturation medium comprised DMEM, with low glucose, GlutaMAX™ Supplement, pyruvate (Thermo Fisher Scientific), 1% N-2 Supplement (Thermo Fisher Scientific), 2% B-27 Supplement (Thermo Fisher Scientific), and optional antibiotics (e.g., 1% Pen/Strep-Thermo Fisher Scientific). 0.1 μM T3 (Sigma-Aldrich) or 1 mM creatine monohydrate (Sigma-Aldrich) were added to the maturation medium for a four-week period when indicated (e.g., day 28-56 or day 56-84).
The contractile function of engineered skeletal muscle tissue was measured under isometric conditions in an organ bath filled with gassed (5% CO2/95% 02) Tyrode solution (containing in mmol/L): 120 NaCl, 1 MgCl2, 0.2 CaCl2), 5.4 KCl, 22.6 NaHCO3, […], 5.6 glucose, and 0.56 ascorbate) at 37° C. To verify the force-length relationship—while ESMs were electrically stimulated at 1 Hz with 5 ms rectangular pulses of 200 mA—muscle length was increased by mechanical stretching in intervals of 125 μm, until the maximum contraction force was observed. At the length of maximum force generation, tetanic contraction force was assessed under defined stimulation frequencies (4-second stimulation at 10, 20, 40, 60, 80, and 100 Hz).

Assay [2] has as its system MYH2 (fast myosin heavy chain). Briefly: Western blot of myosin heavy chain protein in ESM. As to conditions: four-week addition of 0.1 μM T3; day 84; three independent experiments. How it is done: (§1) To investigate the molecular cause of this improved muscle function, the expression of different proteins was analyzed by Western blots. MYH2 is the heavy chain of the fast myosin (MYH2; fast myosin heavy chain); MYH7 is the heavy chain of the slow myosin (MYH7; slow myosin heavy chain); MYH3 is the heavy chain of the embryonic myosin (MYH3; embryonic myosin heavy chain). Protein expression was analyzed at day 84. […] Based on three independent experiments, the expression is increased at least 5-fold. The expression of MYH7 remained unchanged by an addition of 0.1 μM T3. […] These protein expression data support the functional data from FIGS. 10B, as the reduced response time of the engineered skeletal muscle can be explained by an increased expression of the fast myosin (MYH2) isoform by T3.
(§2) For protein isolation, engineered skeletal muscle was placed in an Eppendorf tube and snap frozen in liquid nitrogen. To the engineered skeletal muscle, 150 μl of ice-cold protein lysate buffer (2.38 g HEPES, 10.20 g NaCl, 100 ml glycerol, 102 mg MgCl2, 93 mg EDTA, 19 mg EGTA, 5 ml NP-40 in a total volume of 500 ml ddH2O) containing 1/10 phosphatase inhibitor (Roche) and 1/7 protease inhibitor (Roche) were added. A 7-mm stainless steel ball (Qiagen) was added to the Eppendorf tube, and the sample was homogenized using the TissueLyser II (Qiagen) for 30 seconds at 30 Hz and 4° C., followed by incubation on ice for 2 hours and then centrifugation at 12,000 rpm and 4° C. for 30 minutes. The supernatant was collected as a protein sample, and the protein concentration was measured by Bradford protein assay. […] Protein expression in ESM was analyzed by Western blot using the following primary antibodies: monoclonal embryonic myosin heavy chain 3 (1:500, F1.652, DSHB), slow myosin type heavy chain 7 (1:500, A4.951, DSHB), and fast myosin type heavy chain 2 (1:100, A4.74, DSHB). […] Protein quantification from the Western blot was performed using ImageJ.

Assay [3] relates to MYH3 (embryonic myosin heavy chain). The assay is described as follows: Western blot of myosin heavy chain protein in ESM. To be noted: addition of 0.1 μM T3; day 84; on average. How it is done:
as §1, §2
Background: A western blot detects proteins with antibodies after separation by electrophoresis.

Assay [4] relates to MYH7 (slow myosin heavy chain). Briefly: Western blot of myosin heavy chain protein in ESM. As to conditions: addition of 0.1 μM T3; day 84. How it is done: as §1, §2
The mark [5] stands for this setting: 0.1 μM T3 between days 56 and 84.

Turning to `N[C@@H](Cc1cc(I)c(Oc2ccc(O)c(I)c2)c(I)c1)C(=O)O` [T3, triiodo-L-thyronine], in assay [1] (setting [5]), the “contraction speed (+dFOC/dt)” value was “decreased” and the “relaxation speed (−dFOC/dt)” value was “decreased”. In assay [1] (0.1 μM T3 day 28 to day 56), the “contraction speed (+dFOC/dt)” value was “decreased significantly” and the “relaxation speed (−dFOC/dt)” value is on record as “decreased significantly”. For the same molecule, the “protein expression of MYH2, increase” value in assay [2] is recorded as “at least 5 fold”. In addition, the MYH3 expression result in assay [3] is listed as “reduced by approximately half”. Also, the “expression of MYH7” value in assay [4] was “unchanged”.

On to `CN(CC(=O)O)C(=N)N` [creatine], for which the “increase of the force of contraction” value amounted to 39% in assay [1] (1 mM creatine day 28 to day 56) and 30% in assay [1] (1 mM creatine day 56 to day 84). Further, the “force of contraction (FOC)” value in assay [1] (maturation medium with 1 mM creatine day 28 to day 56, tetanic contraction at 100 Hz stimulation, without creatine 1.8 mN) is on record as 2.5 mN. Besides, the “force of contraction (twitch tension)” value in assay [1] (maturation medium with 1 mM creatine day 56 to day 84, tetanic contraction at 100 Hz stimulation, without creatine 4.0 mN) is on record as 5.2 mN.
